In patent US7064114B2, “Gel-microemulsion formulations” (priority 1999, dated 2006):
“And” between values parts separate entries of the source, which are not always exact repeats. Equal values may be shown once.

Key:
[1] = Octanol/water partition coefficient of WHI-07; format: physicochemical
Procedure: (§1) After the drug was completely dissolved in octanol, 5 ml of water was added to each octanol solution. The mixtures were handshaken vigorously for 10 min, and afterward let to stand overnight until a complete phase separation occurred.
Samples of water and octanol were taken from each mixture, and directly injected into the HPLC for analysis. The peak area ratios represent the partition coefficient.

[2] = Solubility of WHI-07; format: physicochemical; conditions: for solubility at 2 h: thermodynamic from solid, n = 3
Procedure: as §1
The solubility of WHI-07 in Captex® 300 and polyethylene glycol 300 was carried out using UV-Vis spectrophotometer at 272 nm.
Calibration curve: Two stock solutions of WHI-07 were prepared in ethanol at concentrations of 4.2 mg/ml and 3.85 mg/ml respectively. The plot of the calibration curve is shown in Curve 1.
Appropriate amounts of WHI-07 and Captex® 300 or PEG300 were weighed and placed in glass containers. Each sample was stirred with a stir bar at ambient temperature for 2 hours. Each sample was then filtered through 0.45 μm filter, and diluted with ethanol for UV-Vis measurement.

[3] = cited from earlier work
[4] = test system: human sperm; test: Computer-assisted spermicidal assay (CASA) on washed highly motile fraction of sperm; format: cell-based; conditions: 3 h at 37° C.; for effect on human sperm motility: concentrations up to those used for GM-4, CASA
Procedure: All donor specimens were obtained after informed consent and in compliance with the guidelines of the Parker Hughes Institute Institutional Review Board. […] Sigma Chemical Co., St. Louis, Mo.) in the presence and absence of serial 2-fold dilutions of test substance. […] After 3 h incubation at 37° C., the sperm head centroid-derived sperm motility parameters were determined using a Hamilton Thorne Research (Danvers, Mass.) Integrated Visual Optical System (IVOS), version 10 instrument, as previously described (D'Cruz O J, et al., Biol Reprod, 1998;58:1515-26.; D'Cruz O J, et al., Mol Hum Reprod, 1998;4:683-93.; D'Cruz O J, et al., Biol Reprod, 1999;60:435-44.; D'Cruz O J, et al. Biol Reprod, 1999;60:1419-28.). The attributes of sperm kinematic parameters evaluated included numbers of motile (MOT) and progressively (PRG) motile sperm; curvilinear velocity (VCL); average path velocity (VAP); straight-line velocity (VSL); beat-cross frequency (BCF); and the amplitude of lateral head displacement (ALH) and the derivatives, straightness (STR) and linearity (LIN). Data from each individual cell track were recorded and analyzed. For each aliquot sampled, >200 sperm were analyzed. The percentage motilities were compared with those of sham-treated control suspensions of motile sperm.

Q: Which logP ([1]; octanol/water, average of four samples, read-out: Octanol/Water partition coefficient Log KD) does the source give for `COC(=O)C(C)NP(=O)(OC[C@H]1O[C@@H](N2C(=O)NC(=O)C(C)(Br)C2OC)CC1N=[N+]=[N-])Oc1ccc(Br)cc1` (mixture of isomers) [WHI-07, (5R,6R)-and (5S,6S)-5-bromo-6-methoxy-5,6-dihydro-AZT-5′-(para-bromophenylmethoxyalaninyl phosphate)] here?
A: 2.05

Q: What about the “Peak area ratio Octanol/water” value ([1]; single samples 1-4, HPLC) of the same molecule?
A: 113.9 and 111.3 and 115.8 and 109.2

Q: And the “solubility in oil (medium chain triglyceride)” value ([2]; medium chain triglyceride)?
A: 4.1%

Q: And the solubility at 2 h ([2]; oil or lipid, in Captex® 300, ambient temperature)?
A: 40.6 mg/mL

Q: What about the solubility at 2 h ([2]; organic solvent or mixture, in PEG300, ambient temperature) of the same molecule?
A: 132 mg/mL

Q: And the “solubility in polyethylene glycol 300” value ([2]; polyethylene glycol 300)?
A: 13.1%

Q: What about the solubility in water ([2]; water) of the same molecule?
A: < 0.003%

Q: Which “average 6-month pregnancy rate” value ([3]; users of N-9, several large studies) does the source give for “isononyl-phenyl-polyoxyethylene (9) ether [N-9]” here?
A: 26%

Q: What about the “effectiveness in preventing pregnancy” value ([3]; users of N-9) of the same molecule?
A: approximately 75%

Q: With `CC(O)CO` (stereo not drawn) [propylene glycol, propane-1,2-diol] as the molecule, how does the “EC50 (concentration that decreased the proportion of motile sperm by 50%)” value [4] read?
A: > 4.2%

Q: And the “effect on human sperm motility” value [4]?
A: partially spermicidal at the highest concentration tested

Q: Which “effect on human sperm motility” value [4] does the source give for `O=C([O-])c1ccccc1.[Na+]` [sodium benzoate] here?
A: little or no inhibitory effects
